Drawing on patent US10034886B2, “GLP-1 receptor modulators” (Celgene International II SÀRL, priority 2014, dated 2018), this text covers EC50 for 50 compounds.

Each structure is given as a SMILES string.

T1 sequence (P43220 24-463): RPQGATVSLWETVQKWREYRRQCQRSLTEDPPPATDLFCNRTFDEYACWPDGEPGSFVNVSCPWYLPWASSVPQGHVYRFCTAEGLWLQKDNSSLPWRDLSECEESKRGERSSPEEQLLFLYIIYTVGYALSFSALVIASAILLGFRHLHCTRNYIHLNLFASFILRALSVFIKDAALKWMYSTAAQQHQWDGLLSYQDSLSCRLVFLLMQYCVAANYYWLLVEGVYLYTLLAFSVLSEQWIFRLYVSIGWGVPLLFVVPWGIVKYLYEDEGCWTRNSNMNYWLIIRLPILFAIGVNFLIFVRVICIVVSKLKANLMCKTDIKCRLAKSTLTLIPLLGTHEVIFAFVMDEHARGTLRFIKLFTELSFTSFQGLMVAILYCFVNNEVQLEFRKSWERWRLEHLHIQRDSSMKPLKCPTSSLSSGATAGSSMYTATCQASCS
T1 sequence (P01275 100-127 partner limits assumed): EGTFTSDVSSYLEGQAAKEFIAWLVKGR

The experiment has as its target T1, GLP-1R (Homo sapiens, UniProt P43220).
T1 construct: host or cells: GLP-1R CRE-bla CHO-K1 cells
The experiment is described as follows: EC20 GLP-1(9-36) PAM cAMP assay: dose response of compound in the presence of fixed concentration of GLP-1(9-36). The format is cell-based. Particulars: dose response of compound in presence of fixed concentration of GLP-1(9-36), GLP-1R CRE-bla CHO-K1 cells, read-out: EC20 GLP-1(9-36) PAM EC50. In short, it runs like this: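 Positive allosteric modulation read as cAMP accumulation: compound titrations (12 points) combined with an EC20 level of GLP-1(9-36) on CHO-K1 GLP-1R CRE-bla cells, IBMX present, 30 min, 37 °C, pH 7.4 buffer. Luminescence converted to cAMP via standards; non-linear fit gave EC50 and Emax.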
(Changes in cAMP serve as a functional read-out for many G protein-coupled receptors.)
On to `CCCCCCCOc1ccc(-c2cnc(-c3ccc(C[C@H](NC(=O)c4ccc(OCC)cc4)C(=O)NC(C(=O)O)C(O)c4ccccc4)cc3)nc2)cc1` (some centres unmarked) [Compound 949], for which the EC50 lay in the range of 800 to 2500 nM.

Regarding `CCCCCCCOc1ccc(-c2cnc(-c3ccc(C[C@H](NC(=O)c4ccc(OC(C)C)cc4)C(=O)NC(C(=O)O)C(O)c4ccccc4)cc3)nc2)cc1` (some centres unmarked) [Compound 950], the half-maximal effective concentration (EC50) is 800 to 2500 nM.

With `CCCCCCCOc1ccc(-c2cnc(-c3ccc(C[C@H](NC(=O)c4ccc(C(C)C)cc4)C(=O)NC(C(=O)O)C(O)c4ccccc4)cc3)nc2)cc1` (some centres unmarked) [Compound 951], the EC50 lay within 800 to 2500 nM.

Consider `CCCCCCCOc1ccc(-c2cnc(-c3ccc(C[C@H](NC(=O)c4ccc(C(C)(C)C)cc4OC)C(=O)NC(C(=O)O)C(O)c4ccccc4)cc3)nc2)cc1` (some centres unmarked) [Compound 952], for which the EC50 lay within 2500 to 5000 nM.

For `CCCCCCCOc1ccc(-c2cnc(-c3ccc(C[C@H](NC(=O)c4cnc(C(C)(C)C)nc4)C(=O)NC(C(=O)O)C(O)c4ccccc4)cc3)nc2)cc1` (some centres unmarked) [Compound 953], the half-maximal effective concentration (EC50) was 800 to 2500 nM.

Consider `CCCCCCCOc1ccc(-c2cnc(-c3ccc(C[C@H](NC(=O)c4cnn(C(C)(C)C)c4)C(=O)NC(C(=O)O)C(O)c4ccccc4)cc3)nc2)cc1` (some centres unmarked) [Compound 954], for which the EC50 was in the range of 800 to 2500 nM.

On to `CCCCCCCOc1ccc(-c2cnc(-c3ccc(C[C@H](NC(=O)/C=C/C(C)(C)C)C(=O)NC(C(=O)O)C(O)c4ccccc4)cc3)nc2)cc1` (some centres unmarked) [Compound 955], for which the EC50 is 5000 to 10000 nM.

Take `CCCCCCCOc1ccc(-c2cnc(-c3ccc(C[C@H](NC(=O)c4ccc(C5CC5)s4)C(=O)NC(C(=O)O)C(O)c4ccccc4)cc3)nc2)cc1` (some centres unmarked) [Compound 956]: the EC50 lay in the range of 2500 to 5000 nM.

`CCCCCCCOc1ccc(-c2cnc(-c3ccc(C[C@H](NC(=O)c4ccc(CC)s4)C(=O)NC(C(=O)O)C(O)c4ccccc4)cc3)nc2)cc1` (some centres unmarked) [Compound 957]: the EC50 was 800 to 2500 nM.

As to `CCCCCCCOc1ccc(-c2cnc(-c3ccc(C[C@H](NC(=O)c4ccc(C(C)C)s4)C(=O)NC(C(=O)O)C(O)c4ccccc4)cc3)nc2)cc1` (some centres unmarked) [Compound 958], the EC50 lay within 800 to 2500 nM.

In the case of `CCCCCCCOc1ccc(-c2cnc(-c3ccc(C[C@H](NC(=O)c4ccc(CCC)s4)C(=O)NC(C(=O)O)C(O)c4ccccc4)cc3)nc2)cc1` (some centres unmarked) [Compound 959], the EC50 fell in the range of 800 to 2500 nM.

As for `CCCCCCCOc1ccc(-c2cnc(-c3ccc(C[C@H](NC(=O)c4ccc(O)c(F)c4)C(=O)NC(C(=O)O)C(O)c4ccccc4)cc3)nc2)cc1` (some centres unmarked) [Compound 960], the EC50 lay in the range of 800 to 2500 nM.

In the case of `CCCCCCCOc1ccc(-c2cnc(-c3ccc(C[C@H](NC(=O)c4ccc(C(C)(C)C)s4)C(=O)NCCCN4CCN(C)CC4)cc3)nc2)cc1` [Compound 961], the EC50 fell in the range of 2500 to 5000 nM.

With `CCCCCCCOc1ccc(-c2cnc(-c3ccc(C[C@H](NC(=O)c4ccc(C(C)(C)C)s4)C(=O)NCCCN(C)C)cc3)nc2)cc1` [Compound 962], the EC50 lay within 800 to 2500 nM.

Turning to `CCCCCCCOc1ccc(-c2cnc(-c3ccc(C[C@H](NC(=O)c4ccc(C(C)(C)C)s4)C(=O)N4CCCN(C)CC4)cc3)nc2)cc1` [Compound 963], the 50% effective concentration (EC50) was 5000 to 10000 nM.

With `CCCCCCCOc1ccc(-c2cnc(-c3ccc(C[C@H](NC(=O)c4ccc(C(C)(C)C)s4)C(=O)NCCCN4CCOCC4)cc3)nc2)cc1` [Compound 964], the concentration for a half-maximal effect (EC50) was in the range of 2500 to 5000 nM.

Consider `CCCCCCCOc1ccc(-c2cnc(-c3ccc(C[C@H](NC(=O)c4ccc(C(C)(C)C)s4)C(=O)Nc4ccc(C(F)(F)F)cc4)cc3)nc2)cc1` [Compound 965], for which the 50% effective concentration (EC50) is 5000 to 10000 nM.

Take `CCCCCCCOc1ccc(-c2cnc(-c3ccc(C[C@H](NC(=O)c4ccc(C(C)(C)C)s4)C(=O)N4CCCNCC4)cc3)nc2)cc1` [Compound 966]: the half-maximal effective concentration (EC50) lay in the range of 5000 to 10000 nM.

Turning to `CCCCCCCOc1ccc(-c2cnc(-c3ccc(C[C@H](NC(=O)c4ccc(C(C)(C)C)s4)C(=O)N4CCN(c5ncccn5)CC4)cc3)nc2)cc1` [Compound 967], the half-maximal effective concentration (EC50) was 2500 to 5000 nM.

On to `CCCCCCCOc1ccc(-c2cnc(-c3ccc(C[C@H](NC(=O)c4ccc(C(C)(C)C)s4)C(=O)NCC4CC4)cc3)nc2)cc1` [Compound 968], for which the 50% effective concentration (EC50) was 5000 to 10000 nM.

For the compound `CCCCCCCOc1ccc(-c2cnc(-c3ccc(C[C@H](NC(=O)c4ccc(C(C)(C)C)s4)C(=O)N(CC)CCO)cc3)nc2)cc1` [Compound 969], the EC50 was in the range of 2500 to 5000 nM.

For `CCCCCCCOc1ccc(-c2cnc(-c3ccc(C[C@H](NC(=O)c4ccc(C(C)(C)C)s4)C(=O)NCCCN(CC)CC)cc3)nc2)cc1` [Compound 970], the 50% effective concentration (EC50) lay in the range of 2500 to 5000 nM.

`CCCCCCCOc1ccc(-c2cnc(-c3ccc(C[C@H](NC(=O)c4ccc(C(C)(C)C)s4)C(=O)N(C)CC4CCN(CCOC)CC4)cc3)nc2)cc1` [Compound 971]: the concentration for a half-maximal effect (EC50) fell in the range of 2500 to 5000 nM.

For `CCCCCCCOc1ccc(-c2cnc(-c3ccc(C[C@H](NC(=O)c4ccc(C(C)(C)C)s4)C(=O)N4CC(C(N)=O)C4)cc3)nc2)cc1` [Compound 972], the concentration for a half-maximal effect (EC50) fell in the range of 5000 to 10000 nM.

Take `CCCCCCCOc1ccc(-c2cnc(-c3ccc(C[C@H](NC(=O)c4ccc(C(C)(C)C)s4)C(=O)NC[C@H]4CCCN4C)cc3)nc2)cc1` [Compound 973]: the EC50 lay in the range of 5000 to 10000 nM.

For `CCCCCCCOc1ccc(-c2cnc(-c3ccc(C[C@H](NC(=O)c4ccc(C(C)(C)C)s4)C(=O)N4CC(C(=O)N(C)C)C4)cc3)nc2)cc1` [Compound 974], the EC50 lay within 2500 to 5000 nM.

For the compound `CCCCCCCOc1ccc(-c2cnc(-c3ccc(C[C@H](NC(=O)c4ccc(C(C)(C)C)s4)C(=O)N4CC(CN(C)C)C4)cc3)nc2)cc1` [Compound 975], the EC50 was in the range of 5000 to 10000 nM.

As for `CCCCCCCOc1ccc(-c2cnc(-c3ccc(C[C@H](NC(=O)c4ccc(C(C)(C)C)s4)C(=O)N4CC(N(C)C)C4)cc3)nc2)cc1` [Compound 976], the EC50 was 2500 to 5000 nM.

Consider `CCCCCCCOc1ccc(-c2cnc(-c3ccc(C[C@H](NC(=O)c4ccc(C(C)(C)C)s4)C(=O)N4CC[C@H](O)C4)cc3)nc2)cc1` [Compound 977], for which the EC50 is 5000 to 10000 nM.

For `CCCCCCCOc1ccc(-c2cnc(-c3ccc(C[C@H](NC(=O)c4ccc(C(C)(C)C)s4)C(=O)N4CC(c5nn[nH]n5)C4)cc3)nc2)cc1` [Compound 978], the EC50 lay within 800 to 2500 nM.

In the case of `CCCCCCCOc1ccc(-c2cnc(-c3ccc(C[C@H](NC(=O)Cc4ccc(OCCCC)cc4)C(=O)N[C@H](C)C(=O)O)cc3)nc2)cc1` [Compound 979], the EC50 was in the range of 2500 to 5000 nM.

Regarding `CCCCCCCOc1ccc(-c2cnc(-c3ccc(C[C@H](NC(=O)c4ccc5c(c4)OCCO5)C(=O)N[C@H](C)C(=O)O)cc3)nc2)cc1` [Compound 980], the EC50 lay in the range of 800 to 2500 nM.

Consider `CCCCCCCOc1ccc(-c2cnc(-c3ccc(C[C@H](NC(=O)c4ccc(C(=O)c5ccccc5)cc4)C(=O)N[C@H](C)C(=O)O)cc3)nc2)cc1` [Compound 981], for which the EC50 is 2500 to 5000 nM.

For the compound `CCCCCCCOc1ccc(-c2cnc(-c3ccc(C[C@H](NC(=O)c4ccc(OCCC)cc4)C(=O)N[C@H](C)C(=O)O)cc3)nc2)cc1` [Compound 982], the EC50 is 5000 to 10000 nM.

For `CCCCCCCOc1ccc(-c2cnc(-c3ccc(C[C@H](NC(=O)c4ccc(O)c(F)c4)C(=O)N[C@H](C)C(=O)O)cc3)nc2)cc1` [Compound 983], the EC50 lay in the range of 5000 to 10000 nM.

As to `CCCCCCCOc1ccc(-c2cnc(-c3ccc(C[C@H](NC(=O)c4ccc(C(C)(C)C)s4)C(=O)NC4CCNC4)cc3)nc2)cc1` (some centres unmarked) [Compound 984], the EC50 lay within 2500 to 5000 nM.

On to `CCCCCCCOc1ccc(-c2cnc(-c3ccc(C[C@H](NC(=O)c4ccc(C(C)(C)C)s4)C(=O)NC4CNC4)cc3)nc2)cc1` [Compound 985], for which the concentration giving a half-maximal response (EC50) was in the range of 2500 to 5000 nM.

In the case of `CCCCCCCOc1ccc(-c2cnc(-c3ccc(C[C@H](NC(=O)c4ccc(C(C)(C)C)s4)C(=O)NCC4(C)CNC4)cc3)nc2)cc1` [Compound 986], the EC50 is 800 to 2500 nM.

Take `CCCCCCCOc1ccc(-c2cnc(-c3ccc(C[C@H](NC(=O)c4ccc(C(C)(C)C)s4)C(=O)N4CC[C@@H](N)C4)cc3)nc2)cc1` [Compound 987]: the EC50 lay in the range of 5000 to 10000 nM.

Take `CCCCCCCOc1ccc(-c2cnc(-c3ccc(C[C@H](NC(=O)c4ccc(C(C)(C)C)s4)C(=O)N4CCC(C)(N)C4)cc3)nc2)cc1` (some centres unmarked) [Compound 988]: the EC50 fell in the range of 5000 to 10000 nM.

For the compound `CCCCCCCOc1ccc(-c2cnc(-c3ccc(C[C@H](NC(=O)c4ccc(C(C)(C)C)s4)C(=O)N4CC(CCN)C4)cc3)nc2)cc1` [Compound 989], the EC50 fell in the range of 800 to 2500 nM.

As to `CCCCCCCOc1ccc(-c2cnc(-c3ccc(C[C@H](NC(=O)c4cc5cc(OC)ccc5[nH]4)C(=O)N[C@H](C)C(=O)O)cc3)nc2)cc1` [Compound 990], the EC50 was 2500 to 5000 nM.

In the case of `CCCCCCCOc1ccc(-c2cnc(-c3ccc(C[C@H](NC(=O)c4ccc(C(C)(C)C)s4)C(=O)N4CCC(CCC(=O)O)C4)cc3)nc2)cc1` (some centres unmarked) [Compound 991], the concentration giving a half-maximal response (EC50) was 800 to 2500 nM.

For `CCOc1ccc2cc(-c3cnc(-c4ccc(C[C@H](NC(=O)c5ccc(C(C)(C)C)s5)C(=O)N[C@H](C)C(=O)O)cc4)nc3)ccc2c1` [Compound 992], the EC50 lay in the range of 2500 to 5000 nM.

Regarding `C[C@@H](NC(=O)[C@H](Cc1ccc(-c2ncc(-c3ccc(C(=O)c4ccccc4)cc3)cn2)cc1)NC(=O)c1ccc(C(C)(C)C)s1)C(=O)O` [Compound 993], the EC50 was in the range of 2500 to 5000 nM.

With `C[C@@H](NC(=O)[C@H](Cc1ccc(-c2ncc(-c3ccc(OCc4ccccc4)c(F)c3)cn2)cc1)NC(=O)c1ccc(C(C)(C)C)s1)C(=O)O` [Compound 994], the EC50 was 800 to 2500 nM.

Turning to `CSc1cccc(-c2cnc(-c3ccc(C[C@H](NC(=O)c4ccc(C(C)(C)C)s4)C(=O)N[C@H](C)C(=O)O)cc3)nc2)c1` [Compound 995], the EC50 lay within 5000 to 10000 nM.

On to `Cc1cccc(NC(=O)c2cccc(-c3cnc(-c4ccc(C[C@H](NC(=O)c5ccc(C(C)(C)C)s5)C(=O)N[C@H](C)C(=O)O)cc4)nc3)c2)c1C` [Compound 996], for which the EC50 fell in the range of 800 to 2500 nM.

With `COc1ccc2cc(-c3cnc(-c4ccc(C[C@H](NC(=O)c5ccc(C(C)(C)C)s5)C(=O)N[C@H](C)C(=O)O)cc4)nc3)ccc2c1` [Compound 997], the concentration for a half-maximal effect (EC50) lay within 5000 to 10000 nM.

Take `CCSc1ccc(-c2cnc(-c3ccc(C[C@H](NC(=O)c4ccc(C(C)(C)C)s4)C(=O)N[C@H](C)C(=O)O)cc3)nc2)cc1` [Compound 998]: the EC50 was 2500 to 5000 nM.

What is called EC50 is the concentration that produces a half-maximal response.
